Measurements: ChEMBL document CHEMBL3877260, “Synthesis and evaluation of C9 alkoxy analogues of (-)-stepholidine as dopamine receptor ligands” (Eur J Med Chem, 2017)

Columns and labels:
D(1A) dopamine receptor [1] = target: T1, D(1A) dopamine receptor (Homo sapiens, UniProt P21728); assay: Displacement of [3H]SCH23390 from human D1 receptor expressed in HEKT cell membranes at 10 uM after 90 mins by microbeta scintillation counting method relative to control
D(3) dopamine receptor [2] = target: T2, D(3) dopamine receptor (Homo sapiens, UniProt P35462); assay: Displacement of [3H]N-methylspiperone from human D3 receptor expressed in HEKT cell membranes at 10 uM after 90 mins by microbeta scintillation counting method relative to control
T2 sequence (P35462 whole entry): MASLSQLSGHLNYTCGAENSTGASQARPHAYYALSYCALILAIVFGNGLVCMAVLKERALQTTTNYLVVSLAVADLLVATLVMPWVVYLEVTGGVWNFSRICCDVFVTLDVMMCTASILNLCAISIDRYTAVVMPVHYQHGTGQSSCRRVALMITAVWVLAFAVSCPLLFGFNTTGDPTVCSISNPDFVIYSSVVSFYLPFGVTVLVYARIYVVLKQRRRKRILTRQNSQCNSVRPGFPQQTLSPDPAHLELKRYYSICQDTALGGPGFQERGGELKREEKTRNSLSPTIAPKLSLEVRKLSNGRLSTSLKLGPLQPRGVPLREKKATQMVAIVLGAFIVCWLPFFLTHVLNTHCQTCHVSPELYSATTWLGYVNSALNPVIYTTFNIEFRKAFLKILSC

D(2) dopamine receptor [3] = target: T3, D(2) dopamine receptor (Homo sapiens, UniProt P14416); assay: Displacement of [3H]N-methylspiperone from human D2 receptor expressed in HEKT cell membranes after 90 mins by microbeta scintillation counting method
T3 sequence (P14416 whole entry): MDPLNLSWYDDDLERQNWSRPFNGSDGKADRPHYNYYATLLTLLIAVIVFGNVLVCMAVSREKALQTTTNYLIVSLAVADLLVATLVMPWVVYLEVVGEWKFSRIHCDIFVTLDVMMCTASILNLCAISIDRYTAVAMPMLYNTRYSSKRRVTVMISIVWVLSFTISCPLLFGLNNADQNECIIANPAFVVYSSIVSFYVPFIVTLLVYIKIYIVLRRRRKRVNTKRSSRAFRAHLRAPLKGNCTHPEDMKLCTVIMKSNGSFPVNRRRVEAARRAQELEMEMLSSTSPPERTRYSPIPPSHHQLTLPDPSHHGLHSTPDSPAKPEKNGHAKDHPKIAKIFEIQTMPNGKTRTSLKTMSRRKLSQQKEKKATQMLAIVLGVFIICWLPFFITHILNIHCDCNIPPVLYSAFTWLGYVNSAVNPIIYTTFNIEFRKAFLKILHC

D(1A) dopamine receptor [4] = target: T1, D(1A) dopamine receptor; assay: Displacement of [3H]SCH23390 from human D1 receptor expressed in HEKT cell membranes after 90 mins by microbeta scintillation counting method
D(2) dopamine receptor [5] = target: T3, D(2) dopamine receptor; assay: Displacement of [3H]N-methylspiperone from human D2 receptor expressed in HEKT cell membranes at 10 uM after 90 mins by microbeta scintillation counting method relative to control; conditions: HEKT cell membranes expressing human D2 receptor, probe [3H]N-methylspiperone
D(3) dopamine receptor [6] = target: T2, D(3) dopamine receptor; assay: Displacement of [3H]N-methylspiperone from human D3 receptor expressed in HEKT cell membranes after 90 mins by microbeta scintillation counting method
[7] = Antagonist activity at rhesus monkey D1 receptor expressed in HEK293 cells assessed as inhibition of dopamine-induced [35S]GTPgammaS binding; type: cell-based, Macaca mulatta
D(3) dopamine receptor [8] = target: T2, D(3) dopamine receptor; assay: Antagonist activity at human D3 receptor expressed in CHO cells assessed as inhibition of dopamine-induced [35S]GTPgammaS binding; type: functional, cell-based
[9] = Selectivity index, ratio of Ki for human D2 receptor expressed in HEKT cell membranes to Ki for human D1 receptor expressed in HEKT cell membranes

T1 sequence (P21728 whole entry): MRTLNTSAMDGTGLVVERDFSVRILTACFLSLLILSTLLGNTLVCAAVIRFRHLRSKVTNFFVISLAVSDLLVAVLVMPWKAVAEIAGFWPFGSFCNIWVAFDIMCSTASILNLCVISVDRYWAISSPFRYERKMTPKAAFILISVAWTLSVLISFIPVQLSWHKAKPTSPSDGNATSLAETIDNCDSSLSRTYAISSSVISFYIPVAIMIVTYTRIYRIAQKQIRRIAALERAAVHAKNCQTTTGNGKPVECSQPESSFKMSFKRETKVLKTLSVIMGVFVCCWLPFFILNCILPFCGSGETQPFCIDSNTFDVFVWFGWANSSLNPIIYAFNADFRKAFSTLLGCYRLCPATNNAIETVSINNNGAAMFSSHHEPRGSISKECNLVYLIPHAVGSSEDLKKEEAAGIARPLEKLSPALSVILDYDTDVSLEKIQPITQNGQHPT

| Structure (SMILES) | inhibition (D(1A) dopamine receptor [1]) | inhibition (D(3) dopamine receptor [2]) | Ki (D(2) dopamine receptor [3]) | Ki (D(1A) dopamine receptor [4]) | inhibition at 1.5 h, 10 µM (D(2) dopamine receptor [5]) | Ki (D(3) dopamine receptor [6]) | IC50 [7] | Ke (D(3) dopamine receptor [8]) | Ratio Ki [9] |
| --- | --- | --- | --- | --- | --- | --- | --- | --- | --- |
| CCCCOc1c(O)cc(Br)c2c1CN1CCc3cc(OC)c(O)cc3[C@@H]1C2 | > 50% | > 50% | 107 nM | 2.3 nM | > 50% | – | – | – | – |
| CCC(C)Oc1c(O)ccc2c1CN1CCc3cc(OC)c(O)cc3[C@@H]1C2 (some centres undefined) | – | – | 104 nM | 65 nM | > 50% | – | – | – | – |
| CCCCOc1c(O)ccc2c1CN1CCc3cc(OC)c(O)cc3[C@@H]1C2 | – | > 50% | – | – | < 50% | – | – | – | – |
| CCCCCOc1c(O)ccc2c1CN1CCc3cc(OC)c(O)cc3[C@@H]1C2 | – | > 50% | 23 nM | – | > 50% | 3210 nM | – | – | – |
| COc1cc2c(cc1O)[C@@H]1Cc3ccc(O)c(OC)c3CN1CC2 [STEPHOLIDINE] | > 50% | > 50% | – | – | > 50% | – | – | – | – |
| CCOc1c(O)ccc2c1CN1CCc3cc(OC)c(O)cc3[C@@H]1C2 | > 50% | > 50% | – | 5.3 nM | < 50% | 106 nM | 416 nM | 3.15 nM | – |
| CCCOc1c(O)cc(Br)c2c1CN1CCc3cc(OC)c(O)cc3[C@@H]1C2 | > 50% | > 50% | 70 nM | 2.2 nM | > 50% | – | – | – | – |
| CCC(C)Oc1c(O)cc(Br)c2c1CN1CCc3cc(OC)c(O)cc3[C@@H]1C2 (some centres undefined) | > 50% | > 50% | 331 nM | 9.7 nM | > 50% | 2070 nM | – | – | – |
| CCOc1c(O)cc(Br)c2c1CN1CCc3cc(OC)c(O)cc3[C@@H]1C2 | > 50% | > 50% | – | 1.3 nM | < 50% | 373 nM | – | – | >10 |
| COCCOc1c(O)cc(Br)c2c1CN1CCc3cc(OC)c(O)cc3[C@@H]1C2 | > 50% | > 50% | – | 4.2 nM | < 50% | 726 nM | – | – | – |
| COCCOc1c(O)ccc2c1CN1CCc3cc(OC)c(O)cc3[C@@H]1C2 | > 50% | > 50% | 18 nM | 7.7 nM | > 50% | – | – | – | – |
| CCCCCCOc1c(O)cc(Br)c2c1CN1CCc3cc(OC)c(O)cc3[C@@H]1C2 | > 50% | > 50% | 731 nM | 68 nM | > 50% | 3170 nM | – | – | >10 |
| CCCCCOc1c(O)cc(Br)c2c1CN1CCc3cc(OC)c(O)cc3[C@@H]1C2 | > 50% | > 50% | 398 nM | 32 nM | > 50% | – | – | – | – |
| CCCOc1c(O)ccc2c1CN1CCc3cc(OC)c(O)cc3[C@@H]1C2 | > 50% | > 50% | 41 nM | 12 nM | > 50% | 175 nM | – | – | – |
| CCCCCCOc1c(O)ccc2c1CN1CCc3cc(OC)c(O)cc3[C@@H]1C2 | > 50% | > 50% | – | 77 nM | < 50% | 195 nM | – | – | – |
